Here are results for nine compounds from ChEMBL document CHEMBL3774354, “Discovery of Selective Histone Deacetylase 6 Inhibitors Using the Quinazoline as the Cap for the Treatment of Cancer” (J Med Chem, 2016).

Series [1] has as its system Mus musculus. As to the kind of experiment: Toxicity in NOD/SCID mouse xenografted with human Ramos cells assessed as death at 40 mg/kg, po q2d for 6 days. Format: organism-based. The note with it: in vivo, 144 h.
Series [2] concerns the target T1, Protein deacetylase HDAC6 (Homo sapiens) (UniProt Q9UBN7).
T1 sequence (whole entry): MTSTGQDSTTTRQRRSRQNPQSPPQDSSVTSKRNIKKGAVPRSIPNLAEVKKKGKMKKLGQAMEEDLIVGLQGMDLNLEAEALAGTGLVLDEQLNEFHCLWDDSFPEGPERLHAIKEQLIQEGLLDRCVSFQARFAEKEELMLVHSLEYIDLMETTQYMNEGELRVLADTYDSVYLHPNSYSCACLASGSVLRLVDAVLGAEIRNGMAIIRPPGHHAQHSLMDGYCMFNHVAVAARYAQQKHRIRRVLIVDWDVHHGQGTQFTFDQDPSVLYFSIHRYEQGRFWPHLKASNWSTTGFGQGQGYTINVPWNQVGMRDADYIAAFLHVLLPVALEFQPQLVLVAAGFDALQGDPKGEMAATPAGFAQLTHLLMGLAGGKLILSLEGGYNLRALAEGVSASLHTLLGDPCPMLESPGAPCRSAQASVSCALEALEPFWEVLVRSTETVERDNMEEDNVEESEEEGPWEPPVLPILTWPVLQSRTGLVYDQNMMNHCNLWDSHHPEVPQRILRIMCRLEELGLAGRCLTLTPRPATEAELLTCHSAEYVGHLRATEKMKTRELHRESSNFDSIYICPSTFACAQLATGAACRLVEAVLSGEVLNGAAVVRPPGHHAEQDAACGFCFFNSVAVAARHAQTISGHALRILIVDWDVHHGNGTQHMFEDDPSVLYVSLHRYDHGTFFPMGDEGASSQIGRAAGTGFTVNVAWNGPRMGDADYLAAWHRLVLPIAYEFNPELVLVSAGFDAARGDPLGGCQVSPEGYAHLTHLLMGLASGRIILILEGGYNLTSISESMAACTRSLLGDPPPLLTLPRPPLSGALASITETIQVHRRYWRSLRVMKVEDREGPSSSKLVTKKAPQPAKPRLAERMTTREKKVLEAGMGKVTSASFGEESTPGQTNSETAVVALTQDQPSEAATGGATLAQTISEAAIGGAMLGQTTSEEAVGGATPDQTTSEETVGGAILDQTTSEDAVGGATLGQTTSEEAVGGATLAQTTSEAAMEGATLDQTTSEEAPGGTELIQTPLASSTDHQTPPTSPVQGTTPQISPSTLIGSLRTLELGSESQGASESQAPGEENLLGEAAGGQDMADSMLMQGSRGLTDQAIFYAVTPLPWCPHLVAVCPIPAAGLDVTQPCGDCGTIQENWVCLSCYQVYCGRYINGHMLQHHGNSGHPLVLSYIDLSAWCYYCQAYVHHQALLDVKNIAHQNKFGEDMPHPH
Put plainly: Inhibition of HDAC6 in human MV4-11 cells assessed as upregulation of alpha- tubulin acetylation after 6 hrs by Western blot analysis. Format: cell-based.

Series [3] deals with T1, Protein deacetylase HDAC6 (Homo sapiens). Put plainly: Inhibition of HDAC6 in human HCT116 cells assessed as upregulation of alpha- tubulin acetylation after 6 hrs by Western blot analysis. It is filed as cell-based. Conditions: HCT-116. In general terms: A western blot detects proteins with antibodies after separation by electrophoresis.
Series [4] deals with HeLa. Put plainly: Antiproliferative activity against human HeLa cells after 72 hrs by MTT assay. It is filed as functional, cell-based. For orientation: Tetrazolium assays rely on reduction of a dye to a coloured formazan, in cell work by metabolically active cells.
In series [5] the target is Histone deacetylase 5 (Homo sapiens, UniProt Q9UQL6). Put plainly: Inhibition of recombinant HDAC5 (unknown origin) using AMC labeled AC-peptide as substrate at 10 uM incubated for 1 hr by fluorescence analysis.
Histone deacetylase 5, sequence (Q9UQL6 whole entry): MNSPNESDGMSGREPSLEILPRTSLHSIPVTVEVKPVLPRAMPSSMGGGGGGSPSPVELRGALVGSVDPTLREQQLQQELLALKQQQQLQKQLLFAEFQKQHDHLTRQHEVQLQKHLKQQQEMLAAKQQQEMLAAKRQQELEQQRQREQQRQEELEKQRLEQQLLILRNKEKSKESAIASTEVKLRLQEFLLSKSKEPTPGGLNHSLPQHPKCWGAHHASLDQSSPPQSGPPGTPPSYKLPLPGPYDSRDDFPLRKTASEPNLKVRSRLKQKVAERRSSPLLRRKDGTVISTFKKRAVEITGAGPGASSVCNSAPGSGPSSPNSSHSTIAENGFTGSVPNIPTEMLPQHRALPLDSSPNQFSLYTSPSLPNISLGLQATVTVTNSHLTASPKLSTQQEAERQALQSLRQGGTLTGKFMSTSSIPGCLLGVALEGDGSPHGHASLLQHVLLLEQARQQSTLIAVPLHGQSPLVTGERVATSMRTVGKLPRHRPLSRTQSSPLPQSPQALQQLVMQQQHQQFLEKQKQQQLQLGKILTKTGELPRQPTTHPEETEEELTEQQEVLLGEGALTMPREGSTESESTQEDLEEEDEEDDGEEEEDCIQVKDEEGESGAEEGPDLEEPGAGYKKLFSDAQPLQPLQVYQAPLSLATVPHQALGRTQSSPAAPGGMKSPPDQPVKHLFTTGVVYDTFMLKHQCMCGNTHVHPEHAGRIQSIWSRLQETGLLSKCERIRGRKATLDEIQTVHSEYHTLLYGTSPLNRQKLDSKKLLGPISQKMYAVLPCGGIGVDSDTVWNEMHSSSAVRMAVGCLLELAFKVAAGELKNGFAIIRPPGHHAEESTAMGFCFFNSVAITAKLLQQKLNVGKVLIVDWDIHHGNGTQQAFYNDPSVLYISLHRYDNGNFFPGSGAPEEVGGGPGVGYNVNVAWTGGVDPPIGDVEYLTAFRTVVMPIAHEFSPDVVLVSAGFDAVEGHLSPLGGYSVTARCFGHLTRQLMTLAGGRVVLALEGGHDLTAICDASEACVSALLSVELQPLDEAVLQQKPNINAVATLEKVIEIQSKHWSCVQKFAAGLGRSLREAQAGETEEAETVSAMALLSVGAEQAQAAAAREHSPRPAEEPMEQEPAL
Series [6] concerns the target Histone deacetylase 7 (Homo sapiens) (UniProt Q8WUI4). Put plainly: Inhibition of recombinant HDAC7 (unknown origin) using AMC labeled AC-peptide as substrate at 10 uM incubated for 1 hr by fluorescence analysis.
For series [7], the target named is Histone deacetylase 9 (Homo sapiens, UniProt Q9UKV0). Put plainly: Inhibition of recombinant HDAC9 (unknown origin) using AMC labeled AC-peptide as substrate at 10 uM incubated for 1 hr by fluorescence analysis.
Histone deacetylase 9, sequence (Q9UKV0 whole entry): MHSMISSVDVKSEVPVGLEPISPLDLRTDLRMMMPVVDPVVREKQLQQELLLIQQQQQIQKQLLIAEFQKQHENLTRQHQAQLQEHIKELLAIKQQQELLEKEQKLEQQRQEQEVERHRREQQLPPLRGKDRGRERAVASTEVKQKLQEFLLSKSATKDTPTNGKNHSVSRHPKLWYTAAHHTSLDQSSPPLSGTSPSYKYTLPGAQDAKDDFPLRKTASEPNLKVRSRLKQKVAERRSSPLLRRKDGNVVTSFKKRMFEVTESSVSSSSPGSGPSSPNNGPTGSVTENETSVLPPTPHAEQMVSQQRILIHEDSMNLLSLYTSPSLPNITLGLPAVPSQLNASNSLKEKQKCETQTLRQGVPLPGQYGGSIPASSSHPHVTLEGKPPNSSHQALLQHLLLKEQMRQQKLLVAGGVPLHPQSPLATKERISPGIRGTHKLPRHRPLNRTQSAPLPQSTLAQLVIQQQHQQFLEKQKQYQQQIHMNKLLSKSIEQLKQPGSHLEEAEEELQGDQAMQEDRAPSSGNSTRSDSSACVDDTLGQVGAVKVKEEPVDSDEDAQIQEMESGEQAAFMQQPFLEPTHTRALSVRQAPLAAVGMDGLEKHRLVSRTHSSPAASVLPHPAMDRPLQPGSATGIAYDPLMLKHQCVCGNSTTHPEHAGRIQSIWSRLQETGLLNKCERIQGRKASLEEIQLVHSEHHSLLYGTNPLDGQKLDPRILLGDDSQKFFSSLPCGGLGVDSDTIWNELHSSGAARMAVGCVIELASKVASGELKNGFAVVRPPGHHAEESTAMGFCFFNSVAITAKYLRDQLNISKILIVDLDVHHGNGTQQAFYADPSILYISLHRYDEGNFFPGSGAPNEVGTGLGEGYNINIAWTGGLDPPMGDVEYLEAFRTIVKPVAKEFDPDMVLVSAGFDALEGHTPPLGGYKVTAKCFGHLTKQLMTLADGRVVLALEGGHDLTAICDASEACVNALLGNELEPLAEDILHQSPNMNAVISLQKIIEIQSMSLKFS
Series [8] has as its target Histone deacetylase 11 (Homo sapiens) (UniProt Q96DB2). Put plainly: Inhibition of recombinant HDAC11 (unknown origin) using AMC labeled AC-peptide as substrate at 10 uM incubated for 1 hr by fluorescence analysis.
A short description of series [9]: Cytotoxicity against human U266 cells after 72 hrs by MTT assay. Conditions: U-266, 72 h. Format: functional, cell-based.
Series [10] can be described thus: Cytotoxicity against human RPMI8226 cells after 72 hrs by MTT assay. The note with it: RPMI-8226, 72 h. It is filed as functional, cell-based.
Series [11] concerns MV4-11. As to the kind of experiment: Cytotoxicity against human MV4-11 cells after 72 hrs by MTT assay. Format: functional, cell-based. Conditions: MV4-11, 72 h.
The subject of series [12] is K562. As to the kind of experiment: Cytotoxicity against human K562 cells after 72 hrs by MTT assay. Format: functional, cell-based. The note with it: K562, 72 h.
Series [13] relates to Ramos. As to the kind of experiment: Cytotoxicity against human Ramos cells after 72 hrs by MTT assay. It is filed as functional, cell-based.
Series [14] deals with A2780. Put plainly: Cytotoxicity against human A2780 cells after 72 hrs by MTT assay. It is filed as functional, cell-based. Conditions: A2780, 72 h.
Series [15] is described as follows: Cytotoxicity against human SKOV3 cells after 72 hrs by MTT assay. The note with it: SK-OV-3, 72 h. Format: functional, cell-based.
Series [16] is described as follows: Cytotoxicity against human SKBR3 cells after 72 hrs by MTT assay. It is filed as functional, cell-based. Conditions: SK-BR-3, 72 h.
The test system of series [17] is HepG2. Put plainly: Cytotoxicity against human HepG2 cells after 72 hrs by MTT assay. Format: functional, cell-based. The note with it: HepG2, 72 h.
The nature of series [18]: Cytotoxicity against human H460 cells after 72 hrs by MTT assay. It is filed as functional, cell-based. The note with it: NCI-H460, 72 h.
For series [19], the system named is A549. Put plainly: Cytotoxicity against human A549 cells after 72 hrs by MTT assay. Format: functional, cell-based. Conditions: A549, 72 h.
The nature of series [20]: Cytotoxicity against human HCT116 cells after 72 hrs by MTT assay. Format: functional, cell-based. Conditions: HCT-116, 72 h.
In series [21] the test system is HT-29. As to the kind of experiment: Cytotoxicity against human HT-29 cells after 72 hrs by MTT assay. Format: functional, cell-based. The note with it: HT-29, 72 h.
Series [22] concerns the target Histone deacetylase 1/2/3 (Homo sapiens) (UniProt Q13547+O15379+Q92769). Conditions: MV4-11, 1000 nM.
Description: Inhibition of HDAC1/2/3 in human MV4-11 cells assessed as upregulation of histone H3 acetylation at 1000 nM after 6 hrs by Western blot analysis
In series [23] the target is Histone deacetylase 1 (Homo sapiens, UniProt Q13547).
Histone deacetylase 1, sequence (Q13547 whole entry): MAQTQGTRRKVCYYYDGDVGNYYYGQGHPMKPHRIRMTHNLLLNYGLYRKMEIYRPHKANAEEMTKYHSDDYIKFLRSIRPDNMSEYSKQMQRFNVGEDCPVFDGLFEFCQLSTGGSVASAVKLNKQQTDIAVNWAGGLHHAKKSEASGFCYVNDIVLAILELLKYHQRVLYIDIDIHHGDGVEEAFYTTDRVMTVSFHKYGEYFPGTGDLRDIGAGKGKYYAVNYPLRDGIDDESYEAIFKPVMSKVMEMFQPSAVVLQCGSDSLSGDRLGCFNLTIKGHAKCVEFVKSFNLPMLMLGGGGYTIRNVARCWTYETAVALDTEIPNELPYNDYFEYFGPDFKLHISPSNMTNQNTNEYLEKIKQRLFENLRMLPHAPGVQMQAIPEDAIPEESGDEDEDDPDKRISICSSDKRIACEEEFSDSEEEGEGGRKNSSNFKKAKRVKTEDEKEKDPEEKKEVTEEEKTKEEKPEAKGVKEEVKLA
Description: Inhibition of human recombinant HDAC1 using AMC labeled AC-peptide as substrate incubated for 1 hr by fluorescence analysis
The target of series [24] is T2, Protein deacetylase HDAC6 (Homo sapiens, UniProt Q9UBN7).
T2 sequence (Q9UBN7 whole entry): T1 sequence (whole entry)
Description: Inhibition of human recombinant HDAC6 using AMC labeled AC-peptide as substrate incubated for 1 hr by fluorescence analysis

The target in series [25] is T3, Histone deacetylase 8 (Homo sapiens, UniProt Q9BY41).
T3 sequence (Q9BY41 whole entry): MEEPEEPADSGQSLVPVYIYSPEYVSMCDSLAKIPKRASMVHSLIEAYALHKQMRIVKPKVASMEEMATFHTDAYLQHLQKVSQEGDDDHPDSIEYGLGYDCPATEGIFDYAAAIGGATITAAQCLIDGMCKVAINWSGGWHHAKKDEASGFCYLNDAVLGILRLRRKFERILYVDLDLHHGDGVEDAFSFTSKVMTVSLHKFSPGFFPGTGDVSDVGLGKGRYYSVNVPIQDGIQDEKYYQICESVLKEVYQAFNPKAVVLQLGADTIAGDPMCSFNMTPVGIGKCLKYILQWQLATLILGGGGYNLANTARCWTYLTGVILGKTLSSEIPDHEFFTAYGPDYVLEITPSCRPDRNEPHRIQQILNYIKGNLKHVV
Description: Inhibition of human recombinant HDAC8 using AMC labeled AC-peptide as substrate incubated for 1 hr by fluorescence analysis

The target in series [26] is T2, Protein deacetylase HDAC6. As to the kind of experiment: Inhibition of HDAC6 in human HeLa cells assessed as induction of tubulin acetylation incubated for 6 hrs by cytoblot assay. It is filed as cell-based.
The test system of series [27] is HeLa. Put plainly: Induction of histone H3 acetylation in human HeLa cells incubated for 6 hrs by cytoblot assay. It is filed as functional, cell-based.
In series [28] the test system is A-375. As to the kind of experiment: Antiproliferative activity against human A375 cells after 72 hrs by MTT assay. Format: functional, cell-based. The note with it: A-375, 72 h.
For series [29], the system named is Ramos. As to the kind of experiment: Antitumor activity against human Ramos cells xenografted in NOD/SCID mouse assessed as tumor mass change at 10 mg/kg, ip q2d for 6 days. Format: functional. In general terms: In xenograft studies the graft and the host belong to different species.
Series [30] concerns Mus musculus. Put plainly: Toxicity in NOD/SCID mouse xenografted with human Ramos cells assessed as change in body weight at 10 mg/kg, ip q2d for 6 days. Conditions: in vivo, 144 h.

Calls of active or inactive are those of the source. No cut-off for these calls is given here. Some results are limits rather than exact numbers.

Histone deacetylase 11 (Homo sapiens), sequence (Q96DB2 whole entry): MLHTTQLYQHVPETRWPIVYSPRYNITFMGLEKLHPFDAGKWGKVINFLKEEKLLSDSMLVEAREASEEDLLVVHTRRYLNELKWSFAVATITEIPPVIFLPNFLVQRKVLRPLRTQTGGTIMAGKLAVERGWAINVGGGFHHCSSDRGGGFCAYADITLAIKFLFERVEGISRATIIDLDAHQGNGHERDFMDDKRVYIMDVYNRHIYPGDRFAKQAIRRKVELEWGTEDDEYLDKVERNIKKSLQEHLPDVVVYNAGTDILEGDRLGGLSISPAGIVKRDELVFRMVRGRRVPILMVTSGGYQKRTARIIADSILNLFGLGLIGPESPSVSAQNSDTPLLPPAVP
Histone deacetylase 7 (Homo sapiens), sequence (Q8WUI4 whole entry): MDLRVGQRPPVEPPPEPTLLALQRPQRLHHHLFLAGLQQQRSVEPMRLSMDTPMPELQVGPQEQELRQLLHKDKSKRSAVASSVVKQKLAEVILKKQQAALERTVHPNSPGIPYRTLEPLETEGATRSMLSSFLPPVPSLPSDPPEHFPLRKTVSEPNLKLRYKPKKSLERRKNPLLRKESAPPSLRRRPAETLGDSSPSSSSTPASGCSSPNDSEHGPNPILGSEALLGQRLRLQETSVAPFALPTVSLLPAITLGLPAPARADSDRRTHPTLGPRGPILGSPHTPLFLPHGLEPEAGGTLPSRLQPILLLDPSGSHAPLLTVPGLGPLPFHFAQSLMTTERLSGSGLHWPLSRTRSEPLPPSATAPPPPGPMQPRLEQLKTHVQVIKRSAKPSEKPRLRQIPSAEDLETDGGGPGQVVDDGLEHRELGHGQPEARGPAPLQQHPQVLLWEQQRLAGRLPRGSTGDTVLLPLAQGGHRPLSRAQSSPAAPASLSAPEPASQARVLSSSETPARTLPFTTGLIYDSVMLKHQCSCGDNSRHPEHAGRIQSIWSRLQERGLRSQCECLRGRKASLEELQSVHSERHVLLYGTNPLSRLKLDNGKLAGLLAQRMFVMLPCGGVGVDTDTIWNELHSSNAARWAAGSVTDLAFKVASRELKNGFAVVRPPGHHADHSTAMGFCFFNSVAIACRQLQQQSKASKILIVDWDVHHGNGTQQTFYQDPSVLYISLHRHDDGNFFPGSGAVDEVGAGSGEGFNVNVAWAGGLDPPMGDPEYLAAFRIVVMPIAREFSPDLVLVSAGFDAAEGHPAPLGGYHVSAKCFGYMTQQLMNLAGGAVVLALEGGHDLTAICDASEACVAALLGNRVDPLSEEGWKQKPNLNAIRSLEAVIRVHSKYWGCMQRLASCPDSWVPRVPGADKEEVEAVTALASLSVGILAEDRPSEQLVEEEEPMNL

Take `O=C(CCCCCCNC(=O)c1cnc(N(c2ccccc2)c2ccccc2)nc1)NO` [RICOLINOSTAT]: the Activity result in series [1] was “Non-toxic”. For the same compound, the inhibition entry in [2] and in series [3] was “Dose-dependent effect” each time. The half-inhibitory concentration (IC50) (usually the concentration that gives 50% inhibition) is more than 5 µM in series [4]; more than 5 µM in series [9]; 1.47 µM in [10]; more than 5 µM in series [11]; more than 5 µM in series [12]; more than 5 µM in series [13]. Also, the half-inhibitory concentration (IC50) in [14], in series [15], in [16], in series [17], in [18] and in [19] was more than 5 µM each time. Further, the IC50 in [20] and in [21] was more than 5 µM in each case. For the same compound, the inhibition result in series [5], in [6], in [7] and in series [8] was “inactive” in each case. Further, in [22], the inhibition result is “Active”.

Regarding `COc1ccc(N(C)c2nc(C)nc3ccccc23)cc1OCCCCCC(=O)NO`, the IC50 was determined as 0.16 µM in series [23], 0.023 µM in series [24] and 1.53 µM in series [25].

Take `CN(c1ccc(OCC(=O)NO)cc1)c1ncnc2ccccc12`: the concentration for a half-maximal effect (EC50) (in general, the concentration needed to bring the measured effect to its halfway point) was determined as 0.0494 µM in series [26] and 1.26 µM in series [27]. Besides, the 50% inhibitory concentration (IC50) was determined as 0.432 µM in series [28]; 0.379 µM in series [4]; 0.242 µM in series [23]; 0.014 µM in series [24]; 1.42 µM in series [25].

Regarding `Cc1nc(N(C)c2cccc(OCCCCCC(=O)NO)c2)c2ccccc2n1`, the half-maximal inhibitory concentration (IC50) in series [23] is 0.073 µM; in series [24], more than 1 µM; in series [25], more than 1 µM.

In the case of `Cc1nc(N(C)c2cccc(OCCCCC(=O)NO)c2)c2ccccc2n1`, the IC50 in series [23] was 0.306 µM; in series [24], more than 1 µM; in series [25], more than 1 µM.

For the compound `Cc1nc2c(c(N(C)c3ccc(OCCCC(=O)NO)cc3)n1)CCC2`, the half-inhibitory concentration (IC50) in series [23] stood at 0.195 µM; in series [24] it was 0.04 µM; in [25], 6.19 µM.

In the case of `COc1ccc(N(C)c2nc(C)nc3ccccc23)cc1OCC(=O)NO`, the IC50 in series [23], in series [24] and in [25] was more than 1 µM throughout.

Consider `COc1ccc(Nc2nc(C)nc3ccccc23)cc1OCCCC(=O)NO`, for which the IC50 in [23], in series [24] and in [25] was more than 1 µM in each case.

`Cc1[nH]c2ccccc2c1CCNCc1ccc(/C=C/C(=O)NO)cc1` [PANOBINOSTAT]: the Activity in series [29] is reported as 16.6%; in [30], -1.9%.
